Measured values: patent US7214495B2, “Screening method” (Takeda Pharmaceutical Company Limited, priority 2002, dated 2007)

Assays:
Mouse GPR40 = target: T1, Mouse GPR40 (Mus musculus, UniProt Q76JU9); assay: EC50 by FLIPR calcium assay in CHO cells stably expressing mouse GPR40; type: cell-based; conditions: intracellular calcium, FLIPR, stable CHO line
T1 construct: expressed in transfected cells
Method: (§1) For determination of EC50 values, the CHO cell lines in which human-, mouse- and rat-derived GPR40 was stably expressed were used. Unless otherwise indicated, these CHO cell lines were incubated in α-MEM medium (Invitrogen) supplemented with 10% fetal calf serum (Invitrogen).
(§2) On the day before assay, the cells incubated to almost confluent stage were rinsed with PBS (Invitrogen), then scraped in 0.05% trypsin-EDTA solution (Invitrogen) and recovered by centrifugal operation. The number of the cells obtained was counted and diluted so as to contain 3×10^5 cells/1 mL of the medium. The dilution was dispensed in a Black welled 96-well plate (Coster) in 100 μL/well, followed by incubation overnight in a CO2 incubator. To the thus prepared CHO cells, various test samples were added and the changes in intracellular calcium level in this case were measured using FLIPR (Molecular Device). In order to determine the changes in the intracellular calcium ion level on FLIPR, the cells were pre-treated by the following procedures.
(§3) First, for the purpose of adding a fluorescent dye Fluo-3 AM (DOJIN) to the cells or washing the cells immediately before the FLIPR assay, an assay buffer was prepared. A solution obtained by adding 20 mL of 1M HEPES (pH 7.4) (DOJIN) to 1000 mL of HBSS (Invitrogen) was prepared (hereinafter HBSS/HEPES solution), to which 10 mL of a solution mixture obtained by dissolving 710 mg of Probenecid (Sigma) in 5 mL of 1N NaOH and further adding 5 mL of HBSS/HEPES solution was added. The resulting solution was used as the assay buffer. Next, 50 μg of Fluo-3AM was dissolved in 21 μL of DMSO (Wako) and an equal volume of 20% Pulronic acid (Molecular Probes) was added to and mixed with the solution. The mixture was then added to 10.6 mL of the assay buffer supplemented with 105 μL of fetal calf serum to prepare a fluorescent dye solution. […], the medium for the CHO cells again plated in a Black welled 96-well plate was removed. Immediately thereafter, the fluorescent dye solution was dispensed in 100 μL each/well and the cells were incubated in a CO2 incubator for an hour so that the fluorescent dye was taken up into the cells. The cells after the incubation was washed with the assay buffer described above and set on FLIPR. […] After the pre-treatment above was made, the changes in intracellular calcium level after the addition of various test samples were measured on FLIPR.

human-derived GPR40 = target: T2, human-derived GPR40 (Homo sapiens, UniProt O14842); assay: Intracellular calcium change (FLIPR) in CHO-K1 cells transiently expressing GPR40; type: cell-based; conditions: added in 10^−5 M to 10^−6 M; no response in vector-only control cells
T2 construct: The DNA fragment encoding human GPR40 was acquired by the following PCR procedures; expressed in transfected cells; host or cells: CHO-K1 (transient, Lipofectamine)
T2 sequence (O14842 whole entry, the tested form may be a part): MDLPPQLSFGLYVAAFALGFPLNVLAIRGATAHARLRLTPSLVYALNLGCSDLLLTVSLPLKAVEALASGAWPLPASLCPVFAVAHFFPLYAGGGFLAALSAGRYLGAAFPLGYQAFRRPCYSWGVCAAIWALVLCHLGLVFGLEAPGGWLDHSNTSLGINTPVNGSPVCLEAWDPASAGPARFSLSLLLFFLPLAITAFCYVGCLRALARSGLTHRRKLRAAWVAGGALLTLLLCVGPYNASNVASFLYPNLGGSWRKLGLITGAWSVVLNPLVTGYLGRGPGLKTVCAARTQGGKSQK
Method: The CHO-K1 cell line was cultured in HAM F-12 medium (Invitrogen) containing 10% fetal calf serum (Invitrogen), unless otherwise indicated. One day before transfection, 4.5×10^5 cells per 10 cm^2 were plated, followed by incubation in a CO2 incubator adjusted to a concentration of 5% CO2 at 37° C. for at least 15 hours. Using Lipofectamine reagent (Invitrogen), transfection procedures were carried out by modifications of the method attached to the reagent. When a 6-well plate was used for the incubator, the following procedures were performed. First, 2 tubes each having a 1.5 ml volume were prepared and 100 μl each of Opti-MEM-I medium (Invitrogen) was dispensed in each tube. Next, 1 μg of the expression vector was charged in one tube and in another tube, 6 μl of Lipofectamine reagent was charged, which were mixed together. The mixture was settled for 20 minutes at room temperature. To the solution, 800 μl of Opti-MEM-I medium was added and the resulting solution mixture for transfection was added to CHO-K1 cells, which had been previously washed with Opti-MEM-I medium. Then, the cells were incubated in a CO2 incubator for 6 hours. After the incubation, the cells were rinsed with PBS (Invitrogen), then scraped using 0.05% trypsin-EDTA solution (Invitrogen) and recovered by centrifugal operation. The cells obtained were counted and diluted to 5×10^4 cells per 200 μl of the medium. The dilution was dispensed onto a Black walled 96-well plate (Costar) in 200 μl each per well, followed by incubation overnight in a CO2 incubator. Various test samples were added to the CHO-K1 cells in which the receptor was transiently expressed by the transfection operation described above, whereby changes in the intracellular calcium ion level were determined using FLIPR (Molecular Device). In order to determine the changes in the intracellular calcium ion level on FLIPR, the cells were pre-treated by the following procedures. First, for the purpose of adding a fluorescent dye Fluo-3 AM (DOJIN) to the cells or washing the cells immediately before the FLIPR assay, an assay buffer was prepared. A solution obtained by adding 20 ml of 1M HEPES (pH 7.4) (DOJIN) to 1000 ml of HBSS (Invitrogen) was prepared (hereinafter HBSS/HEPES solution), to which 10 ml of a solution mixture obtained by dissolving 710 mg of Probenecid (Sigma) in 5 ml of 1N NaOH and further adding 5 ml of HBSS/HEPES solution was added. The resulting solution was used as the assay buffer. Next, 50 μg of Fluo-3AM was dissolved in 21 μl of DMSO (DOJIN) and an equal volume of 20% Pulronic acid (Molecular Probes) was added to and mixed with the solution. The mixture was then added to 10.6 ml of the assay buffer supplemented with 105 μl of fetal calf serum to prepare a fluorescent dye solution. The medium for the transfection-treated CHO-K1 cells was removed. Immediately thereafter, the fluorescent dye solution was dispensed in 100 μl each/well and the cells were incubated in a CO2 incubator for an hour so that the fluorescent dye was taken up into the cells. The cells after the incubation was washed with the assay buffer described above and set on FLIPR. A test sample added to the receptor-expressed CHO-K1 cells was prepared using the assay buffer and set on FLIPR at the same time. After various test samples were added thereto.
Following the pre-treatment above, changes in intracellular calcium level after addition of various test samples were measured on FLIPR.

human GPR40 = target: T3, human GPR40 (Homo sapiens, UniProt O14842); assay: EC50 by FLIPR calcium assay in CHO cells stably expressing human GPR40; type: cell-based; conditions: intracellular calcium, FLIPR, stable CHO line
T3 construct: The resulting fragment (ca. 1 kb) was introduced into vector pAKKO-111, which was used for transfection of CHO cells; expressed in transfected cells
T3 sequence (O14842 whole entry, the tested form may be a part): as above
Method: as §1, §2, §3

Rat GPR40 = target: T4, Rat GPR40 (Rattus norvegicus, UniProt Q8K3T4); assay: EC50 by FLIPR calcium assay in CHO cells stably expressing rat GPR40; type: cell-based; conditions: intracellular calcium, FLIPR, stable CHO line
T4 construct: expressed in transfected cells
T4 sequence (Q8K3T4 whole entry): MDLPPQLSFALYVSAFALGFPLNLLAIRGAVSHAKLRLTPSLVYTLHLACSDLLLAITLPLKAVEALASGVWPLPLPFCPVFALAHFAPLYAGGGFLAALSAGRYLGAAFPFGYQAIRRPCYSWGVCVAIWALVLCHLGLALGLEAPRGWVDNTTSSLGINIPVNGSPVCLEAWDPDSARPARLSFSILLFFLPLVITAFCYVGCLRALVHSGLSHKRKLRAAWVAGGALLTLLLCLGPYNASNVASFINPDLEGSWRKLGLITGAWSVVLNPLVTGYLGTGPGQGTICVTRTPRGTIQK
Method: as §1, §2, §3

[1] = system: mouse pancreatic β cell line MIN6; assay: Insulin secretion from MIN6 in KRBH buffer (immunoassay); type: cell-based; conditions: 22 mM glucose KRBH, 90 minutes
Method: The mouse pancreatic β cell line MIN6 incubated in a flask was scraped in PBS containing 2.5 mM EDTA and plated in a 96-well plate followed by incubation for 2 days. The medium used was the same as in EXAMPLE 24, namely, 4.5 g/l of glucose-containing Dulbecco's Modified Eagle Medium (DMEM, Invitrogen, Inc.) supplemented with 15% fetal calf serum (ThermoTrace, Inc.), 5.5 μM 2-mercaptethanol (Invitrogen, Inc.), 20 mM HEPES pH 7.3, 100 U/ml penicillin and 100 μg/ml streptomycin. The cells were washed twice with modified Krebs-Ringer bicarbonate buffer (KRBH, 116 mM NaCl, 4.7 mM KCl, 1.2 mM KH2PO4, 1.2 mM MgSO4, 2.5 mM CaCl2, 25 mM NaHCO3, 24 mM HEPES, pH 7.3), followed by preincubation at 37° C. in 5% CO2 for 30 minutes. The fatty acid diluted/prepared using the aforesaid KRBH buffer added with 22 mM glucose was added to the cells after the preincubation, followed by incubation under the conditions of 37° C. in 5% CO2 for 90 minutes. After the incubation, the supernatant of the cells was recovered and stored in a frozen state. The insulin content in the supernatant was assayed using an insulin immunoassay kit commercially available (Amersham Pharmacia, Inc.).
Based on the method of EXAMPLE 25, effects of glucose level when added with fatty acids were examined. The level of glucose, which was added to KRBH upon the addition of fatty acids, was varied to 0, 5.5, 11 and 22 mM to study the effects.
The insulin secretion enhancing activity in the m40i103-introduced MIN6 cells using HVJ Envelope VECTOR KIT GenomONE based on the method of EXAMPLE 18 was examined. The insulin secretion enhancing activity by fatty acids was examined according to the method of EXAMPLE 25.
Based on the procedures of EXAMPLE 25, an essential prerequisite of Ca^2+ ions in the extracellular fluid was examined. In preincubation and incubation with a sample, Ca^2+ ions were removed and 0.1 mM EGTA, which was a reagent for chelating Ca^2+ ions, was further added, and then the insulin secretion enhancing activity by fatty acids was examined in this case.
Based on the method of EXAMPLE 25, effects of Ca^2+ channel blocker (Nifedipine) and MAP kinase inhibitor (PD98059) were examined. In preincubation and incubation with a sample, the insulin secretion enhancing activity by fatty acids was examined when Nifedipine (10 μM) or PD98059 (50 μM) was added.
It is known that fatty acids have the property of binding to albumin. Based on the method of EXAMPLE 25, effects were examined when bovine serum albumin (BSA) was present. In preincubation and incubation with a sample, the insulin secretion activity by fatty acids was examined when 0.1% BSA was added to the buffer.

MIN6 cells = assay: FLIPR intracellular calcium assay using MIN6; type: cell-based, mouse; conditions: 10 μM fatty acid
Method: Mouse pancreatic β cell line MIN6 incubated in a flask was scraped using PBS containing 2.5 mM EDTA and diluted so as to contain 3×10^5 cells/1 mL of the medium. The dilution was dispensed in a Black welled 96-well plate (Coster) in 100 μL/well, followed by incubation in a CO2 incubator for 2 days. The medium used was 4.5 g/l of glucose-containing Dulbecco's Modified Eagle Medium (DMEM, Invitrogen, Inc.) supplemented with 15% fetal calf serum (ThermoTrace, Inc.), 5.5 μM 2-mercaptethanol (Invitrogen, Inc.), 20 mM HEPES pH 7.3, 100 U/ml penicillin and 100 μg/ml streptomycin. To the thus prepared MIN6 cells, various fatty acids (10 μM) were added and the changes in intracellular calcium level in this case were measured using FLIPR (Molecular Device). The changes in the intracellular calcium ion level on FLIPR were assayed in accordance with the procedures described in EXAMPLE 24.

T1 sequence (Q76JU9 whole entry): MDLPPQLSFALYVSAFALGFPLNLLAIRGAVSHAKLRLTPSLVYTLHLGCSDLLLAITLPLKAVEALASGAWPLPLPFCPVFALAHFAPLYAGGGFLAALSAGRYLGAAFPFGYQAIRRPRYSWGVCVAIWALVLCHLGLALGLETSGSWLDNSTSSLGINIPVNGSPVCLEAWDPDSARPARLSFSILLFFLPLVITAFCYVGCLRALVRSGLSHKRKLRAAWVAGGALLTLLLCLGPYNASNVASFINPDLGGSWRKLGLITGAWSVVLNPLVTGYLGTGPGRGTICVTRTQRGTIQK

## CCCCCCCCCCCC(=O)O [Lauric acid (C12), Lauric acid]
Mouse GPR40; read-out: EC50 Mouse GPR40
  EC50: 5.6 ± 1.6 µM
human-derived GPR40
  response (increase in intracellular calcium level) of GPR40-expressing CHO-K1 cells: specifically responsive
Human GPR40; read-out: EC50 Human GPR40
  EC50: 5.7 ± 1.4 µM
Rat GPR40; read-out: EC50 Rat GPR40
  EC50: 13 ± 3.3 µM

## eicosatrienoic acid
human-derived GPR40
  response (increase in intracellular calcium level) of GPR40-expressing CHO-K1 cells: specifically responsive

## CCCCCCCCC#CCC#CCC#CCCCC(=O)O [5.8.11-eicosatriynoic acid]
human-derived GPR40
  response (increase in intracellular calcium level) of GPR40-expressing CHO-K1 cells: specifically responsive

## CCCCC/C=C\C/C=C\C/C=C\C/C=C\CCCCCC(=O)O [adrenic acid]
human-derived GPR40
  response (increase in intracellular calcium level) of GPR40-expressing CHO-K1 cells: specifically responsive

## eicosadienoic acid
human-derived GPR40
  response (increase in intracellular calcium level) of GPR40-expressing CHO-K1 cells: specifically responsive

## CC(C)=CCCC(C)=CCCC(C)=CC(=O)O [farnesoic acid]
human-derived GPR40
  response (increase in intracellular calcium level) of GPR40-expressing CHO-K1 cells: specifically responsive

## docosatrienoic acid
human-derived GPR40
  response (increase in intracellular calcium level) of GPR40-expressing CHO-K1 cells: specifically responsive

## CCCCC/C=C\C/C=C\CCCCCCCC(=O)OC [Methyl linolate]
Mouse GPR40
  EC50 Mouse GPR40: inactive
Human GPR40
  EC50 Human GPR40: inactive
[1]
  insulin secretion enhancing activity: did not show any significant insulin secretion enhancing activity
Rat GPR40
  EC50 Rat GPR40: inactive
MIN6 cells
  intracellular Ca^2+ level in MIN6: not observed

## CCCC(=O)O [Butyric acid (C4), Butyric acid]
Mouse GPR40
  EC50 Mouse GPR40: inactive
Human GPR40
  EC50 Human GPR40: inactive
[1]
  insulin secretion enhancing activity: did not show any significant insulin secretion enhancing activity
Rat GPR40
  EC50 Rat GPR40: inactive
MIN6 cells
  intracellular Ca^2+ level in MIN6: not observed

## CCCCCC#CCC#CCC#CCC#CCCCC(=O)O [5.8.11.14-eicosatetraynoic acid]
human-derived GPR40
  response (increase in intracellular calcium level) of GPR40-expressing CHO-K1 cells: specifically responsive
